Source: patent US20260125388A1 (priority 2022, published 2026)
Converted amounts (≈) assume the structure as drawn. Read-outs that look alike come from different tables or passages of the source.

Columns and labels:
[1] = Aqueous solubility, shake flask in PBS buffer; format: physicochemical; conditions: for Aqueous solubility (footnote b: mM) / solubility at 24 h: pH 7.2, cells marked b; for solubility at 24 h: PBS buffer, aqueous buffer, thermodynamic from solid, read-out: Aqueous solubility (footnote b: mM); for Aqueous solubility: pH 7.2
Protocol: 5-50 mg of compound was added to 500 μL of PBS buffer at pH 7.4. The pH was adjusted if necessary, using a 1M NaOH solution. The solutions were vortexed for 10 s, sonicated for 2 min and agitated with a horizontal shaker in a closed vial for 24 h. The mixtures were transferred to an Eppendorf tube and centrifuged for 5 min at 16000×g followed by filtration through […] cellulose acetate spin X centrifuge filter (Costar). 200 μL of filtrate was transferred to a new Eppendorf tube and 200 μL of methanol was added and then subsequent dilution was made in 50:50 methanol/PBS buffer water if necessary. After mixing, 50 μL were transferred into a 384 well plate (Coring UV star, 781801) for UV detection at 250-600 nm (Tecan M1000). The assay was carried out with three independent samples of each compound. The concentration of each solution was determined with a calibration curve in 50:50 methanol/PBS buffer water. Absorbance of corresponding methanol PBS blank were recorded and subtracted from the absorbance of calibration curve solutions and from the samples.

[2] = parallel artificial membrane permeation assay at pH 7.4
Protocol: The artificial membrane was prepared by carefully pipetting 15 μL of the 5% (v/v) hexadecane in hexane solution to each of the wells of the donor plate. The plate was placed into a fume hood for 1 h to ensure complete evaporation of the hexane. After the hexane had evaporated, 300 μL of PBS with 5% (v/v) DMSO was added to each of the wells of the acceptor plate. The hexadecane treated donor plate was then placed on top of the acceptor plate taking care that the underside of the membrane is completely in contact with the solution in each of the acceptor wells. […] The lid was placed on the plates and the entire plate sandwich was placed into a closed humid environment. The container was then placed on a reciprocal shaker for agitation at about 100 rpm. The time at the beginning of the incubation was recorded, as this is a thermodynamic-based assay. The incubation was then allowed to continue for 18 h. The donor plate was removed and 50 μL of the acceptor solution was transferred to the UV plate. Drug solutions at the theoretical equilibrium concentration (100 μM) was also prepared and transferred to the UV plate. The absorbance of the solutions in the UV plate was then scanned from 250-600 nm with 1 nm steps and a 5 nm bandwidth. Log Pe was calculated as follows (Equation 1).

[3] = system: GABAA receptor; assay: GABAA receptor binding, competition assay with [3H]-flunitrazepam and rat brain membranes; conditions: for GABAAR binding, % inhibition at 10 μM: Table 3
Protocol: GABAA receptor binding: Rat brain membranes were prepared from frozen tissue that was thawed on ice and homogenized on ice in 10 volumes of cold lysis buffer (50 mM Tris HCl, pH 7.4, containing protease inhibitor cocktail from Roche) using a Polytron homogenizer (6 pulses and 10 seconds per pulse). The homogenate was centrifuged at 1,000×g for 10 min at 4° C. to obtain the supernatant. The supernatant was then centrifuged at 40,000×g for 20 min, and the resulting supernatant decanted and replaced with the same ice-cold lysis buffer. Two or three additional rounds of homogenization-centrifugation were performed to ensure thorough homogenization and also to wash out endogenous ligands. The final pellet was resuspended in the same buffer and homogenized one last time. […] Total binding and nonspecific binding were determined with reference compound clonazepam. […] Scintillation cocktail is then melted onto the microwave-dried filters on a hot plate and radioactivity counted in a Microbeta counter. The data (n=6) were analyzed by nonlinear regression.

[4] = system: HEK293 cells; assay: Cytotoxicity, CellTiter-Glo cell viability assay; format: cell-based, human; conditions: for Cytotoxicity LD50: HEK293 cells, CellTiter-Glo, Table 3; for LD50 HEK293: human kidney cells, Table 2
Protocol: Compounds with increased cytotoxicity can be identified using an in vitro cytotoxicity assay. Therefore, human embryonic kidney 293T (HEK293T) cell lines were purchased (ATCC) and cultured in 75 cm2 flasks (CellStar). Cells were grown in DMEM/High Glucose (Hyclone, #SH3024301) media to which non-essential amino acids (Hyclone, #SH30238.01), 10 mM HEPES (Hyclone, #SH302237.01), 5×106 units of penicillin and streptomycin (Hyclone, #SV30010), and 10% of heat inactivated fetal bovine serum (Gibco, #10082147) were added. Cells were harvested using 0.05% Trypsin (Hyclone, #SH3023601). The cell viability assay was evaluated using CellTiter-Glo™ Luminescent Cell Viability Assay Kit (Promega, Madison, WI), which contains luciferase and all its substrate except ATP. The controls for the cytotoxicity assay used were (E)-10-(bromotriphenylphosphoranyl)decyl 4-(4-(tert-butyl)phenyl)-4-oxobut-2-enoate (400 μM in DMSO, positive control) and DMSO (negative control). All luminescence readings were performed on a Tecan Infinite M1000 plate reader. Small volume transfers were performed on the Tecan Freedom EVO liquid handling system with a 100 nL pin tool transfer (V&P Scientific). Serial dilutions were done in 96-well polypropylene plates (Coming, #3365) and assays were conducted in 384-well white optical bottom plates. The assays were carried out in quadruplet in three independent runs. The data were normalized to the controls and if possible analyzed by nonlinear regression (GraphPad Prism).

[5] = 3H-flunitrazepam, rat brain extract
[6] = [3H]-flunitrazepam, rat brain, Table 1
[7] = read-out: GABAAR binding (IC50), value in brackets, 3H-flunitrazepam, rat brain extract, Table 3, unit inferred

SMILES	Aqueous solubility (footnote b: mM) [1]	Permeability (log Pe (cm/s)) [2]	GABAAR binding, % inhibition at 10 μM [3, 5]	% Inhibition at 10 μM [3, 6]	Cytotoxicity LD50 [4]	LD50 HEK293 [4]	solubility at 24 h [1]	IC50 [3, 6]	IC50 [3, 7]	Aqueous solubility [1]
O=C(O)c1ncn2c1C1(CCCC1)N=C(c1ccccc1F)c1cc(Br)ccc1-2 [Compound 28, 8-bromo-6-(2-fluorophenyl)spiro[benzo[f]imidazo[1,5-a][1,4]diazepine-4,1′-cyclopentane]-3-carboxylic acid]	46.7 ± 0.6 ^b mM	−6.7 ± 0.04 cm/s	2 (n.d.) %	23.8%	>300 µM	>400 µM	–	–	–	–
O=C(O)c1ncn2c1C1(CC1)N=C(c1ccccc1F)c1cc(Br)ccc1-2 [Compound 26, 8-bromo-6-(2-fluorophenyl)spiro[benzo[f]imidazo[1,5-a][1,4]diazepine-4,1′-cyclopropane]-3-carboxylic acid]	–	−6.8 ± 0.09 cm/s	97%	97.0%	>300 µM	>400 µM	8.2 mM (≈ 3500 µg/mL)	9.1 nM	9 nM	–
C#Cc1ccc2c(c1)C(c1ccccc1F)=NC1(CCCC1)c1c(C(=O)O)ncn1-2 [Compound 21, 8-ethynyl-6-(2-fluorophenyl)spiro[benzo[f]imidazo[1,5-a][1,4]diazepine-4,1′-cyclopentane]-3-carboxylic acid]	–	–	–	0%	–	>400 µM	–	–	–	–
CC1(C)N=C(c2ccccc2F)c2cc(Br)ccc2-n2cnc(C(=O)O)c21 [Compound 34, 8-bromo-6-(2-fluorophenyl)-4,4-dimethyl-4H-benzo[f]imidazo[1,5-a][1,4]diazepine-3-carboxylic acid]	–	−7.0 ± 0.22 cm/s	74%	74.4%	>300 µM	>400 µM	4.4 mM (≈ 1880 µg/mL)	4050 nM	4050 nM	–
O=C(O)c1ncn2c1C1(CCCC1)N=C(c1ccccc1F)c1cc(Cl)ccc1-2 [Compound 31, 8-chloro-6-(2-fluorophenyl)spiro[benzo[f]imidazo[1,5-a][1,4]diazepine-4,1′-cyclopentane]-3-carboxylic acid]	–	–	–	47.8%	–	>400 µM	–	–	–	–
O=C(O)c1ncn2c1C1(CC1)N=C(c1ccccc1F)c1cc(C3CC3)ccc1-2 [Compound 24, 8-cyclopropyl-6-(2-fluorophenyl)spiro[benzo[f]imidazo[1,5-a][1,4]diazepine-4,1′-cyclopropane]-3-carboxylic acid]	12.8 ± 0.1 ^b mM	−6.4 ± 0.04 cm/s	58%	–	>300 µM	>400 µM	–	–	1830 nM	–
O=C(O)c1ncn2c1C1(CCCCC1)N=C(c1ccccc1F)c1cc(Br)ccc1-2 [Compound 29, 8-bromo-6-(2-fluorophenyl)spiro[benzo[f]imidazo[1,5-a][1,4]diazepine-4,1′-cyclohexane]-3-carboxylic acid]	46.9 ± 1.3 ^b mM	−6.6 ± 0.10 cm/s	24 (n.d.) %	1.9%	>300 µM	>400 µM	–	–	–	–
C#Cc1ccc2c(c1)C(c1ccccc1F)=NC1(CC1)c1c(C(=O)O)ncn1-2 [Compound 20, 8-ethynyl-6-(2-fluorophenyl)spiro[benzo[f]imidazo[1,5-a][1,4]diazepine-4,1′-cyclopropane]-3-carboxylic acid]	40.3 ± 0.5 ^b mM	−6.7 ± 0.12 cm/s	55%	–	>300 µM	>400 µM	–	–	59 nM	–
O=C(O)c1ncn2c1C1(CCCC1)N=C(c1ccccc1F)c1ccccc1-2 [Compound 33, 6-(2-fluorophenyl)spiro[benzo[f]imidazo[1,5-a][1,4]diazepine-4,1′-cyclopentane]-3-carboxylic acid]	–	–	–	4.7%	–	>400 µM	–	–	–	–
CC1(C)N=C(c2ccccc2F)c2cc(Br)ccc2NC1=O [Compound 8]	–	−5.7 ± 0.01 cm/s	70%	–	>150 µM	–	–	–	1250 nM	319 ± 24 µM
O=C(O)c1ncn2c1C1(CCCC1)N=C(c1ccccc1F)c1cc(C3CC3)ccc1-2 [Compound 25, 8-cyclopropyl-6-(2-fluorophenyl)spiro[benzo[f]imidazo[1,5-a][1,4]diazepine-4,1′-cyclopentane]-3-carboxylic acid]	–	–	–	31.4%	–	>400 µM	–	–	–	–
CCOC(=O)c1ncn2c1C(C)(C)N=C(c1ccccc1F)c1cc(Br)ccc1-2 [Compound 15]	–	−6.0 ± 0.12 cm/s	78%	–	>150 µM	–	–	–	733 nM	103 ± 5 µM
CCOC(=O)c1ncn2c1C1(CC1)N=C(c1ccccc1F)c1cc(Br)ccc1-2 [Compound 9]	–	−5.1 ± 0.10 cm/s	94%	–	>120 µM	–	–	–	87 nM	141 ± 20 µM
CCOC(=O)c1ncn2c1C1(CCCC1)N=C(c1ccccc1F)c1cc(Br)ccc1-2 [Compound 12]	–	−6.0 ± 0.06 cm/s	74%	–	96 ± 11 µM	–	–	–	6220 nM	141 ± 19 µM
O=C1Nc2ccc(Cl)cc2C(c2ccccc2F)=NC12CC2 [Compound 6]	–	−5.2 ± 0.15 cm/s	90%	–	>150 µM	–	–	–	665 nM	39 ± 3 µM
CCOC(=O)c1ncn2c1C1(CCCCC1)N=C(c1ccccc1F)c1cc(Br)ccc1-2 [Compound 13]	–	−5.6 ± 0.04 cm/s	34 (n.d.) %	–	>150 µM	–	–	–	–	54 ± 2 µM
O=C1Nc2ccc(Br)cc2C(c2ccccc2F)=NC12CC2 [Compound 2]	–	−5.6 ± 0.05 cm/s	97%	–	>150 µM	–	–	–	42 nM	321 ± 19 µM
O=C(O)c1ncn2c1C1(CC1)N=C(c1ccccc1F)c1ccccc1-2 [Compound 32, 6-(2-fluorophenyl)spiro[benzo[f]imidazo[1,5-a][1,4]diazepine-4,1′-cyclopropane]-3-carboxylic acid]	15.1 ± 0.1 ^b mM	−7.0 ± 0.14 cm/s	74%	–	>300 µM	>400 µM	–	–	289 nM	–
O=C(O)c1ncn2c1C1(CCC1)N=C(c1ccccc1F)c1cc(Br)ccc1-2 [Compound 27, 8-bromo-6-(2-fluorophenyl)spiro[benzo[f]imidazo[1,5-a][1,4]diazepine-4,1′-cyclobutane]-3-carboxylic acid]	58.7 ± 4.4 ^b mM	−6.6 ± 0.10 cm/s	59%	59.4%	>300 µM	>400 µM	–	1830 nM	1830 nM	–
O=C(O)c1ncn2c1C1(CC1)N=C(c1ccccc1F)c1cc(Cl)ccc1-2 [Compound 30, 8-chloro-6-(2-fluorophenyl)spiro[benzo[f]imidazo[1,5-a][1,4]diazepine-4,1′-cyclopropane]-3-carboxylic acid]	36.2 ± 0.4 ^b mM	−6.6 ± 0.03 cm/s	18 (n.d.) %	–	>300 µM	>400 µM	–	–	–	–
